Measurements from patent US5688936A, “Vesicle membrane transport proteins” (priority 1993, dated 1997).
“Also recorded” adds a separate entry of the source. Where two headings read alike, the source gives them in different places.

Assays:
[1] = target: T1, chromaffin granule amine transport protein (Rattus norvegicus, UniProt Q01818); test: cell-based; type: cell-based; conditions: for inhibition of vesicular amine uptake/transport (fluorescence assay, in words): concentrations of Table 1
T1 sequence (Q01818 1-521): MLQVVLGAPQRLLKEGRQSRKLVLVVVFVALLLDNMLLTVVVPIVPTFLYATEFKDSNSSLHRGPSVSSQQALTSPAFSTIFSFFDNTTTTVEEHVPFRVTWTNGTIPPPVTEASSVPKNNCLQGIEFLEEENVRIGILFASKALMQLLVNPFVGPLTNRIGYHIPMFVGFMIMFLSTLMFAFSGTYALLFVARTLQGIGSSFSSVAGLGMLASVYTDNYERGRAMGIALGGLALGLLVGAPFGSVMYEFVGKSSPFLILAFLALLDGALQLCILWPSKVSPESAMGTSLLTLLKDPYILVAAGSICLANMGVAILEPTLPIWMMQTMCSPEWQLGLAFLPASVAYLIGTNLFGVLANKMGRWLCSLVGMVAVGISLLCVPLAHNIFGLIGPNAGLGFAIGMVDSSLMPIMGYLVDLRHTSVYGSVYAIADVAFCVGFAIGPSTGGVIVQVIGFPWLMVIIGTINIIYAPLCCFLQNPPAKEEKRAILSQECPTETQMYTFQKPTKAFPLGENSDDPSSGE
Protocol: Uptake and cellular compartmentalization of loaded dopamine were performed by growing cells on poly-lysine-coated glass coverslips. […] The cells were then washed three times in 0.1M sodium phosphate, pH 7.4, and incubated at 4° C. in 2% glyoxylic acid/0.5 mg% MgCl2, pH 4.9-5.0 for three minutes as described by de la Torre, J. Neurosci. Meth. 3:1-5 (1980). Briefly, excess solution is wiped off the bottom and edges of the slide using absorbent paper, taking care not to touch the section. The coverslips were then drained thoroughly, dried in air at 45° C. heated to 80° C. for five minutes, inverted over mineral oil on glass slides and examined under fluorescence using the appropriate filters as described by Knigge et al., Brain Res. 120:393-405 (1977). Briefly, the preparations were infiltrated with warm immersion oil and examined in a Leitz MPV2 microspectrofluorometer equipped with Schoffel excitation and emission grating monochromators, photomultipliers, and ratio computing circuitry. Cells were scanned with either monochromatic light (370 nm) or narrow band excitation (S405, BG3) light for the purpose of identifying fluorescence within cells. Ploem illumination was used in combination with a X 63 or X 100 oil immersion objective.
Dopamine-loaded fluorescence was carried out as described in Example 1. […] Glyoxylic-acid-induced fluorescence was used to determine the intracellular distribution as described above in Example 1. The procedures were the same as described in Example 1 however a pure cDNA clone encoding the vesicle membrane transport protein, selected in the presence of MPP^+, obtained as described herein, was used rather than the primary transformant. […]
The effects of various pharmacologic agents were tested to determine whether the properties of the protein encoded by the mpp^res cDNA corresponded with those expected for the chromaffin granule amine transport protein. […] The cells were pre-incubated in Krebs-Ringer buffer containing 1 μM pargyline and the dose of the drug indicated for 15 minutes. 25 nM [^3 H]-dopamine was then added in the same buffer and after incubation at 37° C. for one hour, the cells were washed in cold Krebs-Ringer buffer, lysed and counted in Ecolite (ICN) as described by Greene and Rein, Brain Res. 129:247-263 (1978). Values were determined from three separate wells and the mean was expressed as percent of control uptake±standard deviation. […] The dose required to inhibit maximal uptake by 50%, Ki, was estimated from the fluorescence data using a range of concentrations for each agent.

PC12 cells [2] = conditions: percent of control uptake ± SD; agent 10 mM; 25 nM [3H]-dopamine, 1 h, 37° C.
Protocol: (§2) The effects of various pharmacologic agents were tested to determine whether the properties of the protein encoded by the mpp^res cDNA corresponded with those expected for the chromaffin granule amine transport protein. […] The cells were pre-incubated in Krebs-Ringer buffer containing 1 μM pargyline and the dose of the drug indicated for 15 minutes. […] Values were determined from three separate wells and the mean was expressed as percent of control uptake±standard deviation.

idiopathic PD = conditions: in vivo, cited from earlier work
monoamine oxidase = conditions: cited from earlier work
respiratory complex I = conditions: cited from earlier work
wild-type CHO cells = test: MTT cytotoxicity assay in wild-type CHO cells; type: cell-based, Chinese hamster; conditions: CHO cells (FIG. 6b)
Protocol: (§1) Differential susceptibility to the respiratory complex I inhibitors MPP^+ and rotenone was shown by measuring toxicity by measuring general cell dehydrogenase activity with reduction of a tetrazolium dye (MTT) in a spectrophotometric plate assay as described by Hansen et al., J. Immunol. Methods 119:203-210 (1989). Briefly, a stock solution of MTT (3,(4,5-dimethylthiazol-2-yl)2,5-diphenyltetrazolium bromide) was dissolved at a concentration of 5 mg/ml in sterile phosphate buffered saline at room temperature. To each well was added 25 μl of the stock solution. After two hours of incubation at 37° C., 100 μl of extraction buffer (20% w/v of SDS in a solution of 50% each dimethylformamide and demineralized water with the pH adjusted to 4.7 with acetic acid and HCl). After an overnight incubation at 37° C., the optical densities at 570 nm were measured using a multiscanner, employing the extraction buffer as the blank. This assay was carried out in triplicate on 96-well plates (NUNC, Denmark). MPP^+ and rotenone at the concentrations indicated in FIG. 6a and 6b, respectively, was added to wild-type and MPP^+ -resistant CHO cells at approximately 50% confluence, and toxicity was assayed after 2-3 days by measuring general cell dehydrogenase activity with the reduction of the tetrazolium dye MTT (3,(4,5-dimethylthiazol-2-yl)2,5-diphenyl-tetrazolium bromide). After addition of the dye at a final concentration of 1 mg/ml, the cells were incubated for two hours at 37° C. and the formazan product was solubilized in 10% sodium dodecyl sulfate (SDS). The plates were maintained at 37° C. for an additional twenty hours and the optical density was determined in an ELISA plate reader at a test wavelength of 570 nm, a reference wavelength of 630 nm and a calibration setting of 1.99. All determinations were performed in triplicate and expressed as the mean, with the error bars representing standard deviation (FIG. 6a and 6b).

[3] = test system: MPP^+ -resistant CHO cells; test: MTT cytotoxicity assay in MPP+-resistant transfected CHO cells; type: cell-based, Chinese hamster
Protocol: as §1
To determine whether an alteration in the process of respiration was responsible for the resistance to MPP^+, the effects of other known respiratory inhibitors were examined. […] Thus, if the resistance were due to a change in the site of action, the transfected cells should also show resistance to rotenone. […] However, rotenone is considered to have its selected effect on respiration at relatively low doses, and an additional, less specific effect at higher doses.
Therefore, the toxicity of MPP^+ to transfected cells in the presence of 1 μM reserpine was examined.

[4] = test system: plasma membrane monoamine transport activity; conditions: cited from earlier work
[5] = target: T1, chromaffin granule amine transport protein; test: Quantitative [3H]dopamine transport assay with mpp^res CHO cell homogenate; type: biochemical; conditions: dose-response, 2-minute incubation (FIG. 15C)
Protocol: The quantity of label bound is measured after filtration of the assay mixture. Preferably, the label is a radioactive label. […] This can be done by standard graphic kinetic techniques such as the Lineweaver-Burke plot.
Incubation was performed at 29° C. for the time period indicated (from 2 minutes to 30 minutes). The assay was terminated by dilution in cold assay buffer followed by filtration through 0.2 μm Supor™ 200 membranes (Gelman, Ann Arbor, Mich.) and the bound radioactivity was measured. The cells used for the quantitative assay are selected in MPP^+ or screened with antibody to ensure that they express the transporter at high levels, as it is difficult to measure activity in this assay at low levels of transporter expression.
The quantitative transport test was performed as described above on wild-type CHO cells and mpp^res CHO cells.

central dopamine neurons = conditions: primates; cited from earlier work
dopamine nerve terminals = conditions: mice; cited from earlier work
[6] = test system: complex III of the respiratory chain; conditions: cited from earlier work
[7] = test system: vesicular amine transport protein; conditions: cited from earlier work
amine stores = conditions: in vivo; cited from earlier work
PC12 cells [8] = test: cells; conditions: Rattus norvegicus, PC-12, 1 h, read-out: [^3 H]-Dopamine Uptake (PC12)
Protocol: as §2

chromaffin cells = conditions: co-incubation with MPP+; cited from earlier work
midbrain cells = conditions: in vitro; cited from earlier work

Molecule: Cl.N [NH4 Cl, ammonium chloride]
- inhibition of vesicular amine uptake/transport (fluorescence assay, in words) [1]: inhibited uptake only partially
- [^3 H]-Dopamine Uptake (PC12) (PC12 cells [2]): 51 ± 3%

Molecule: C#CCN(C)C(C)Cc1ccccc1 (stereo not shown) [deprenyl]
- rate of progression of Parkinson's disease (idiopathic PD): slow the rate of progression of the disease
- rate of progression of Parkinson's disease (idiopathic PD; listed as Deprenyl): appears to slow the rate of progression
- inhibition of monoamine oxidase (monoamine oxidase): inhibits the enzyme that activates MPTP, monoamine oxidase

Molecule: C=C(C)[C@H]1Cc2c(ccc3c2O[C@@H]2COc4cc(OC)c(OC)cc4[C@@H]2C3=O)O1 [rotenone]
- inhibition of respiratory complex I (respiratory complex I): inhibits complex I
- rotenone toxicity pattern (MTT assay) (wild-type CHO cells): biphasic pattern
- resistance of the transfectant to rotenone ([3]; vs wild-type): no substantial resistance

Molecule: COC(=O)[C@H]1[C@@H](OC(=O)c2ccccc2)C[C@@H]2CC[C@H]1N2C [cocaine]
- inhibition of plasma membrane monoamine transport [4]: inhibiting this activity
- inhibition of dopamine transport [5]: no inhibition

Molecule: CN1CC=C(c2ccccc2)CC1 [1-methyl-4-phenyl-1,2,3,6-tetrahydropyridine]
- damage to central dopamine neurons (central dopamine neurons): Damage to central dopamine neurons
- damage to dopamine nerve terminals (dopamine nerve terminals): dopamine nerve terminals in mice

Molecule: oligomycin
- inhibition of respiratory complex III [6]: inhibits complex III
- oligomycin toxicity pattern ([3]; wild-type vs resistant transfected CHO cells): same pattern of toxicity in wild-type and in resistant transfected CHO cells

Molecule: COc1cc2c(cc1OC)C1CC(=O)C(CC(C)C)CN1CC2 (stereo not shown) [tetrabenazine]
- inhibition of vesicular amine uptake/transport (fluorescence assay, in words) [1]: inhibited transport, but at high concentrations
- Ki ([1]; dose required to inhibit maximal uptake by 50%, estimated from fluorescence data, read-out: Ki (est)): 100 µM
- inhibition of vesicular amine transport [7]: an inhibitor of vesicular uptake; also recorded: inhibit this transport activity
- potency to deplete central rather than adrenal amine stores (amine stores): greater potency of that drug to deplete central rather than adrenal amine stores
- activity at 100 µM (PC12 cells [8]): 45 ± 2%
- inhibition of dopamine transport [5]: inhibition by both reserpine and tetrabenazine
- effect on MPP+ toxicity to chromaffin cells (chromaffin cells): chromaffin cell toxicity was potentiated

B1: brain-derived neurotrophic factor (BDNF): neurotrophic factors such as brain-derived neurotrophic factor (BDNF) (protein, UniProt P23560 19-247, looked up)
Neurotrophic factor BDNF …: APMKEANIRGQGGLAYPGVRTHGTLESVNGPKAGSRGLTSLADTFEHVIEELLDEDQKVRPNEENNKDADLYTSRVMLSSQVPLEPPLLFLLEEYKNYLDAANMSMRVRRHSDPARRGELSVCDSISEWVTAADKKTAVDMSGGTVTVLEKVPVSKGQLKQYFYETKCNPMGYTKEGCRGIDKRHWNSQCRTTQSYVRALTMDSKKRIGWRFIRIDTSCVCTLTIKRGR
- protection of midbrain cells from MPP+ (midbrain cells): can protect midbrain cells from MPP^+ in vitro
